Test results taken from ChEMBL document CHEMBL5678818, “Discovery of potent SOS1 inhibitors that block RAS activation via disruption of the RAS-SOS1 interaction” (Proc Natl Acad Sci U S A, 2019).

Experiments:
[1] = molecular target: MAP/microtubule affinity-regulating kinase 3 (Homo sapiens) (UniProt P27448); assay: Inhibition of MARK3 (unknown origin) assessed as residual activity at 100 nM by KINOMEscan analysis relative to control
[2] = molecular target: Tyrosine-protein kinase Fgr (Homo sapiens) (UniProt P09769); assay: Inhibition of FGR (unknown origin) assessed as residual activity at 100 nM by KINOMEscan analysis relative to control
[3] = molecular target: Dual specificity tyrosine-phosphorylation-regulated kinase 1B (Homo sapiens) (UniProt Q9Y463); assay: Inhibition of DYRK1B (unknown origin) assessed as residual activity at 100 nM by KINOMEscan analysis relative to control
[4] = molecular target: Ribosomal protein S6 kinase alpha-6 (Homo sapiens) (UniProt Q9UK32); assay: Inhibition of N-terminal RSK4 […] domain 1 (unknown origin) assessed as residual activity at 100 nM by KINOMEscan analysis relative to control
[5] = molecular target: Cyclin-dependent kinase 11B (Homo sapiens) (UniProt P21127); assay: Inhibition of CDK11 (unknown origin) assessed as residual activity at 100 nM by KINOMEscan analysis relative to control
[6] = molecular target: T1, Serine/threonine-protein kinase D2 (Homo sapiens) (UniProt Q9BZL6); assay: Inhibition of PRKD2 (unknown origin) assessed as residual activity at 100 nM by KINOMEscan analysis relative to control
T1 sequence (whole entry): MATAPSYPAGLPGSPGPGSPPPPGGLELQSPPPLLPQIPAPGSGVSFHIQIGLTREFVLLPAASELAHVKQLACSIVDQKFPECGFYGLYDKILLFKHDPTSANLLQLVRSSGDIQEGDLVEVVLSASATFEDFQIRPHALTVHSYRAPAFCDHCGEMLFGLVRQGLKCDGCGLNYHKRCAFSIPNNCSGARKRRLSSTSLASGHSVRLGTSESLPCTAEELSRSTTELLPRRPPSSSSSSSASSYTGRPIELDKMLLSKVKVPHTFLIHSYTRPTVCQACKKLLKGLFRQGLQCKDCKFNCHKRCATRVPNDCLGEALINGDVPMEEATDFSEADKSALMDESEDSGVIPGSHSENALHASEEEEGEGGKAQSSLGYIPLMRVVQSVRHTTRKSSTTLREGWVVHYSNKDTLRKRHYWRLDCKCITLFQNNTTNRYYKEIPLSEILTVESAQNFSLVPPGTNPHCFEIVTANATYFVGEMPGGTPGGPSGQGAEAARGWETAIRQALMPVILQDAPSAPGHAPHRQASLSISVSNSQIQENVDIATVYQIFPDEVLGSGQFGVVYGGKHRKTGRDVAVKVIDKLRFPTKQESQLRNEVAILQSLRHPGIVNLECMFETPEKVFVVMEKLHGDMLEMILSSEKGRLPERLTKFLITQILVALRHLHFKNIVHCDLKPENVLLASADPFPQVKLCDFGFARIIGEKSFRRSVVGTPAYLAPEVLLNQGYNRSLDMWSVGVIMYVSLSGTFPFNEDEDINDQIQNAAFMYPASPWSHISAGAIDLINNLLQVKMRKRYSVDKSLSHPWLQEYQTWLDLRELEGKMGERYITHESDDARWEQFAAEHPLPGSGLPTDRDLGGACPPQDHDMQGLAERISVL

[7] = test system: Hepatocyte growth factor receptor (Homo sapiens), P08581 [Y1235D]; assay: Inhibition of MET Y1235D mutant (unknown origin) assessed as residual activity at 100 nM by KINOMEscan analysis relative to control
[8] = test system: Phosphatidylinositol 4,5-bisphosphate 3-kinase catalytic subunit alpha isoform (Homo sapiens), P42336 [H1047L]; assay: Inhibition of PIK3CA H1047L mutant (unknown origin) assessed as residual activity at 100 nM by KINOMEscan analysis relative to control
[9] = molecular target: T2, Ankyrin repeat and protein kinase domain-containing protein 1 (Homo sapiens) (UniProt Q8NFD2); assay: Inhibition of ANKK1 (unknown origin) assessed as residual activity at 100 nM by KINOMEscan analysis relative to control
T2 sequence (whole entry): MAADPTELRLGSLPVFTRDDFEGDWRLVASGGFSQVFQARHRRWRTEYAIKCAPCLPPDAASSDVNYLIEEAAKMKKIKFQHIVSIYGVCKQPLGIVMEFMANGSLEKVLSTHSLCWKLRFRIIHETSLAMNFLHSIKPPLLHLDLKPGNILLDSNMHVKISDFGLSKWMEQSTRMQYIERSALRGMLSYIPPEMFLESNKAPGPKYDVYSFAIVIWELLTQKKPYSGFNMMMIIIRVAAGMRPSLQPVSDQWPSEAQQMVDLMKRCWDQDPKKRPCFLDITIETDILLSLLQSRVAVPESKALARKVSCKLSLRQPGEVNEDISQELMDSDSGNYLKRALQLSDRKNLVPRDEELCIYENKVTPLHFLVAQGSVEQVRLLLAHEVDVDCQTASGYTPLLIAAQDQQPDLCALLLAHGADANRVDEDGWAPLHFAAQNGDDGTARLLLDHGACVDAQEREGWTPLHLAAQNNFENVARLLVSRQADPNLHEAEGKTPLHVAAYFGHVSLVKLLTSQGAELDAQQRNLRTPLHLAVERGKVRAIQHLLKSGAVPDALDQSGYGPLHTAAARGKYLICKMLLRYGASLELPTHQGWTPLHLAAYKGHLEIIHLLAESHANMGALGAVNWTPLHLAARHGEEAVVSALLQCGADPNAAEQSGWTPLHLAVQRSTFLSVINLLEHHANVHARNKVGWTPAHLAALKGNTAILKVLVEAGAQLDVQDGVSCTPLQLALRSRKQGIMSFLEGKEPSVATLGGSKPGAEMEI

[10] = molecular target: Cyclin-dependent kinase 2 homolog (Plasmodium falciparum (isolate K1 / Thailand)) (UniProt Q07785); assay: Inhibition of Plasmodium falciparum PK5 assessed as residual activity at 100 nM by KINOMEscan analysis relative to control
[11] = molecular target: Receptor tyrosine-protein kinase erbB-2 (Homo sapiens) (UniProt P04626); assay: Inhibition of ERBB2 (unknown origin) assessed as residual activity at 100 nM by KINOMEscan analysis relative to control

Sequence of Ribosomal protein S6 kinase alpha-6 (Homo sapiens) (Q9UK32 whole entry): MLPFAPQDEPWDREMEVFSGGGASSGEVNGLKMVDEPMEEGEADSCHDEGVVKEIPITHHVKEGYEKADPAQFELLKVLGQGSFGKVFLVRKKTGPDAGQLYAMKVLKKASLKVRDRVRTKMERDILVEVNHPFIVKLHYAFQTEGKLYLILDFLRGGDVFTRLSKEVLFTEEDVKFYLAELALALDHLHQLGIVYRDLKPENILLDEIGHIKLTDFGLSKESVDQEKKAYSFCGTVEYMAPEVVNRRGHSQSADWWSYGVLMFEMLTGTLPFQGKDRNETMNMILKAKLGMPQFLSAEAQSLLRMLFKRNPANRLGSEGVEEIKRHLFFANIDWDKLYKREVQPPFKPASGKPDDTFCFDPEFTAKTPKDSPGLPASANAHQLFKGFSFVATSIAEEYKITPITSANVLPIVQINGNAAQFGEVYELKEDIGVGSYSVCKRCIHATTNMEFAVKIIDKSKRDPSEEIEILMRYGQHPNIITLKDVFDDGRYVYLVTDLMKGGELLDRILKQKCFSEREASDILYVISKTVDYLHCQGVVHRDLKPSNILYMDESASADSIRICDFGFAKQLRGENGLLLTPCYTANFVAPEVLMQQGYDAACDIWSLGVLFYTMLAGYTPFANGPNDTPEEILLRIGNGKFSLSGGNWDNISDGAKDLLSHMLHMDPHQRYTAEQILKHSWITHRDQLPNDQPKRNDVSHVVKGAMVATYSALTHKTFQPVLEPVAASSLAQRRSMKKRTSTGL
Sequence of Phosphatidylinositol 4,5-bisphosphate 3-kinase catalytic subunit alpha isoform (Homo sapiens), P42336 [H1047L] (P42336 whole entry H1047L, the tested form may be a part, canonical isoform): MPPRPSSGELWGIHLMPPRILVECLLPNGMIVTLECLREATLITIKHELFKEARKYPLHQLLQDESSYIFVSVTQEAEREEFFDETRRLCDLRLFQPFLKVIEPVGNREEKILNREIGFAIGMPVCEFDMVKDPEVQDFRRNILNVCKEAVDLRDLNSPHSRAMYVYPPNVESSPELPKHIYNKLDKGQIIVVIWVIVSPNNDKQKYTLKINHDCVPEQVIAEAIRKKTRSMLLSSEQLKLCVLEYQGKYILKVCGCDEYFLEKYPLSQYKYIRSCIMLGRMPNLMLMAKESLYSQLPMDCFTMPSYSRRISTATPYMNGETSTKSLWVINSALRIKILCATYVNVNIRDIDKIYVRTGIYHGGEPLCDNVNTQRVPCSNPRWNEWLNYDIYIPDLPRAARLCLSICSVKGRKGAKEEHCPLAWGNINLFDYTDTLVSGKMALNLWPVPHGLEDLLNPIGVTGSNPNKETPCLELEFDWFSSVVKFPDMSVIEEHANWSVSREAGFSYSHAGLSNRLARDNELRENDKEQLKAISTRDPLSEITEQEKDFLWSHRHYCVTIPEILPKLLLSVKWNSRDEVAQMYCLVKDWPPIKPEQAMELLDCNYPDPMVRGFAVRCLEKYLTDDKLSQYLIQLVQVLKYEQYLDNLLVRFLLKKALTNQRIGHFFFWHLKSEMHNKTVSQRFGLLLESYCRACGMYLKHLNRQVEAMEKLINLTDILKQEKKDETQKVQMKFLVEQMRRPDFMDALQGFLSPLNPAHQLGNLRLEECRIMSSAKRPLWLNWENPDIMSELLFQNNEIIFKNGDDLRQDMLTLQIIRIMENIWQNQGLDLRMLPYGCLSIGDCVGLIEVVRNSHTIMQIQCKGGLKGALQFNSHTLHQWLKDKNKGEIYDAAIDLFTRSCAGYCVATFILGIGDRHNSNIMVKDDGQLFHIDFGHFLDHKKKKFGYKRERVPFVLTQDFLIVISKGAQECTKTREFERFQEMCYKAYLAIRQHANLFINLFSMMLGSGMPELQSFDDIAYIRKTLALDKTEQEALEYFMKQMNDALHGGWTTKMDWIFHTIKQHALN
Sequence of Cyclin-dependent kinase 11B (Homo sapiens) (P21127 whole entry): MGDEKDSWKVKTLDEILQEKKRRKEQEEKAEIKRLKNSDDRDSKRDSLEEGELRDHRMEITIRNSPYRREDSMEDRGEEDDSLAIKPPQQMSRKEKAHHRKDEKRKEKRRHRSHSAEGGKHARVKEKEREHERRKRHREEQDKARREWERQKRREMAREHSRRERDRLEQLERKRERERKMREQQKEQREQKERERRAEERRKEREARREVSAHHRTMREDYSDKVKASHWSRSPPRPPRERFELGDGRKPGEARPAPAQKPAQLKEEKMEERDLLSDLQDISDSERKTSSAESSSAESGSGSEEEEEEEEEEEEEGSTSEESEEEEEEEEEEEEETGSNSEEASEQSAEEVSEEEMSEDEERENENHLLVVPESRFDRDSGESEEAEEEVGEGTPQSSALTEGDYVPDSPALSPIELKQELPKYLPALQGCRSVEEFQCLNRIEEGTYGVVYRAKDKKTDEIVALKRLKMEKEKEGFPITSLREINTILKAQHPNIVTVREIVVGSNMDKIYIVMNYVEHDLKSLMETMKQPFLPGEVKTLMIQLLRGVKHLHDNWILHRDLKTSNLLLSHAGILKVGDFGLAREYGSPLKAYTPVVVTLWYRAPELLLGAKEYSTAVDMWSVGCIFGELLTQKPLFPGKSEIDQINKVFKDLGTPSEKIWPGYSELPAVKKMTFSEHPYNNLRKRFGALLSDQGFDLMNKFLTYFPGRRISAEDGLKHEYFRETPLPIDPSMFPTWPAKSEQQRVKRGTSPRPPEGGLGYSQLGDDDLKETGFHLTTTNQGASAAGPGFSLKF
Sequence of Dual specificity tyrosine-phosphorylation-regulated kinase 1B (Homo sapiens) (Q9Y463 whole entry, looked up): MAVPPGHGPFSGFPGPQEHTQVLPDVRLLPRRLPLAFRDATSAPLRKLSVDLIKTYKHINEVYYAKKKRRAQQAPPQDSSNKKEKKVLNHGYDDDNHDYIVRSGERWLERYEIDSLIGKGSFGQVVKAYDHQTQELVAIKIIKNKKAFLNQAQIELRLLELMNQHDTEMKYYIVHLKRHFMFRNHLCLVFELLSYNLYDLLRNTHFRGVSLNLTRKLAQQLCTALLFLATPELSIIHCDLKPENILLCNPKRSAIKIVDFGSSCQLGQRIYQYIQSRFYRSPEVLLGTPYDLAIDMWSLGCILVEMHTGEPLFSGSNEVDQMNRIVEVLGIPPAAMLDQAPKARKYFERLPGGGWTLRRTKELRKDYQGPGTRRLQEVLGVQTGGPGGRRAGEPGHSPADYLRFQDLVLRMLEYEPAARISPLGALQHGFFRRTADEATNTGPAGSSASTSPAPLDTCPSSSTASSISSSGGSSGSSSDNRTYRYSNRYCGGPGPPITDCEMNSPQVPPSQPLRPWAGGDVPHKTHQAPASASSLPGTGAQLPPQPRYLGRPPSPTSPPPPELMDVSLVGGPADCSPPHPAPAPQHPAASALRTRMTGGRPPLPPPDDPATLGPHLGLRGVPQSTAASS
Sequence of MAP/microtubule affinity-regulating kinase 3 (Homo sapiens) (P27448 whole entry, looked up): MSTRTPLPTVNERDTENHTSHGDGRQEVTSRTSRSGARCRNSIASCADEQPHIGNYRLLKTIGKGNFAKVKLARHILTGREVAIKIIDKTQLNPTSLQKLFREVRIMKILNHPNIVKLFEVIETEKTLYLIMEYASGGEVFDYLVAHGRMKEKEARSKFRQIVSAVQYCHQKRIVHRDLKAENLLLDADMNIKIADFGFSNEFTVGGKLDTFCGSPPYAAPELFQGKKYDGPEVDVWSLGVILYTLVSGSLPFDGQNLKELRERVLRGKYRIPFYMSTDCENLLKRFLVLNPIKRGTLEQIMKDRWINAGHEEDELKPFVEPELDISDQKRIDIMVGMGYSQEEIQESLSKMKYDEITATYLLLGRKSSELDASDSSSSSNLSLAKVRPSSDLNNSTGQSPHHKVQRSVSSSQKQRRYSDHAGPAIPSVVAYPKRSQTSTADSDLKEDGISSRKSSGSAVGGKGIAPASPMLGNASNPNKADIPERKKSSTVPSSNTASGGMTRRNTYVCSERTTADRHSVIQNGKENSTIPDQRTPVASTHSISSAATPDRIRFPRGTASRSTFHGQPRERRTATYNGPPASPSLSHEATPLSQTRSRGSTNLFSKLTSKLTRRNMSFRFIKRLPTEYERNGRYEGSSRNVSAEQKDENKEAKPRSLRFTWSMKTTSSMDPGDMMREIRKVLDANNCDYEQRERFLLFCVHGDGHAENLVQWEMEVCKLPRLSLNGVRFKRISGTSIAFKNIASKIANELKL
Sequence of Tyrosine-protein kinase Fgr (Homo sapiens) (P09769 2-529 limits assumed): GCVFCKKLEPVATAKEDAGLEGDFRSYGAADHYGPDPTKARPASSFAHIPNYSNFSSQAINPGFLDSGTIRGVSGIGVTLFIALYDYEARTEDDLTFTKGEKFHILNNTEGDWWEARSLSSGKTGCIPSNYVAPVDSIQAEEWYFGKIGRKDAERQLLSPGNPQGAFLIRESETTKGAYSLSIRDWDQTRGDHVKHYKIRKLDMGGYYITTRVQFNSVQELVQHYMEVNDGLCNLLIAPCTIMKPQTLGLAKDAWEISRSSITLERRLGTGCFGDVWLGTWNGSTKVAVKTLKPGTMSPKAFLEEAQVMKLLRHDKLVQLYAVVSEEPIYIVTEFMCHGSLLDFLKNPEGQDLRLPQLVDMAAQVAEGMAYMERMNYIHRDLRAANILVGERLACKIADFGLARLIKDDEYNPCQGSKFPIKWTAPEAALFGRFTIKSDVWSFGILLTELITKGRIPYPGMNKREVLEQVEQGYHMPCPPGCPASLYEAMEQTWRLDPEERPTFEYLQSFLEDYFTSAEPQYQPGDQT
Sequence of Cyclin-dependent kinase 2 homolog (Plasmodium falciparum (isolate K1 / Thailand)) (Q07785 whole entry): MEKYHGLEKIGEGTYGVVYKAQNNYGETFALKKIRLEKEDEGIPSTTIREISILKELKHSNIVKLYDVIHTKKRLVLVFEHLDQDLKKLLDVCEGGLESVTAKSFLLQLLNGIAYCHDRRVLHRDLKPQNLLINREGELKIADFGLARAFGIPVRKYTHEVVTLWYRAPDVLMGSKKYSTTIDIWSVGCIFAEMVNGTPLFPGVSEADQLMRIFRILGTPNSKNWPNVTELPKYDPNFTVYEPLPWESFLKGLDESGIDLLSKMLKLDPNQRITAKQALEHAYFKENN

## COc1cc2ncnc(N[C@H](C)c3cccc4ccccc34)c2cc1OC
[1]
  Activity: 88%
[2]
  Activity: 81%
[3]
  Activity: 76%
[4]
  Activity: 94%
[5]
  Activity: 100%
[6]
  Activity: 80%
[7]
  Activity: 83%
[8]
  Activity: 73%
[9]
  Activity: 97%
[10]
  Activity: 100%
[11]
  Activity: 84%
